Measurements as given in US20200281845A1, “COMPOSITIONS COMPRISING LESPEDEZA PLANT EXTRACT” (Clariant International Ltd., priority 2017, published 2020).

Tested on: Per2pro-LUC
Assay: Improvement of circadian clock activity reduced by TCDD, Per2pro-LUC in HaCaT cells
Format: cell-based, human
Conditions: TCDD 1.5 nM for 4 hours, compared to cells treated with solvent toluene alone
Protocol: The improvement effects of the extracts of Lespedeza bicolor Turcz, Lespedeza cuneata G. Don, Lespedeza maximowiczii C. K. Schneid and Lespedeza capitata were measured in skin circadian clock activity reduced by TCDD (2,3,7,8-Tetrachlorodibenzo-p-dioxin) which is an environmental hormone dioxin. HaCaT cells containing Per2pro-LUC were inoculated in a 96-well plate containing Hygromycine B at 200 ug/ml and 10% FBS in DMEM medium (1.4×10^4 cells/well), and cultured in a 5% CO2 incubator at 37° C. for 48 hours. After 48 hours, 50 ug/ml of the extracts of Lespedeza bicolor Turcz, Lespedeza cuneata G. Don and Lespedeza maximowiczii C. K. Schneid and Lespedeza capitata were each treated for 24 hours while being treated with TCDD (2,3,7,8-tetrachlorodibenzo-p-dioxin) 1.5 nM for 4 hours simultaneously, and then transferred to the medium for measuring Luciferase (DMEM containing HEPES 10 mM, Luciferin 1 mM, Hygromycine B 200 ug/ml, 10% FBS). […] K. Schneid and Lespedeza capitata in alleviating reduced biorhythm by environmental hormones. As shown here, cells treated with TCDD had 30% reduced absolute value for Per2pro-LUC rhythm, compared to cells that were treated with the solvent toluene alone. In contrast to this, cells treated with the extracts of Lespedeza bicolor Turcz, Lespedeza cuneata G. Don, Lespedeza maximowiczii C.

For Clc1cc2c(cc1Cl)Oc1cc(Cl)c(Cl)cc1O2 [TCDD, 2,3,7,8-Tetrachlorodibenzo-p-dioxin], the “reduced absolute value for Per2pro-LUC rhythm” value was 30%.
